Source: PubChem BioAssay (NCI)
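A five-concentration, 48-hour dose response in 96-well plates underlies each endpoint, interpolated linearly between surrounding concentrations. TGI is the concentration that stops growth completely.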

Tested on: T-47D breast
Assay: DTP human tumour cell line panel, 48 h

Question: Which TGI does the source give for `Cc1ccc(N=Nc2c(O)c(C(=O)O)cc3ccccc23)c(S(=O)(=O)O)c1` here?
Answer: > 100 µM

Question: With `COc1cc(S(=O)(=O)Nc2ccc(-c3csc(N4C(=O)C(C)SC4c4cccc(Oc5ccccc5)c4)n3)cc2)ccc1Cl` (stereo not drawn) as the molecule, how does the TGI read?
Answer: > 100 µM

Question: For `O=c1cc(NNc2ccc(F)cc2)[nH]c(=O)[nH]1`, which TGI is on record?
Answer: 71 µM

Question: Which TGI does the source give for `CC(CCc1ccccc1)NCC(O)n1c(/N=N/N(C)C)nc2c1c(=O)n(C)c(=O)n2C` (stereo not drawn) here?
Answer: > 100 µM

Question: `O=C1CC(Cl)c2c1csc2Br` (stereo not drawn) was tested. Which TGI did it give?
Answer: 70.1 µM

Tested on: SN12C renal
Assay: DTP human tumour cell line panel, 48 h

Question: With `Cc1ccc(N=Nc2c(O)c(C(=O)O)cc3ccccc23)c(S(=O)(=O)O)c1` as the molecule, how does the TGI read?
Answer: > 100 µM

Question: How did the TGI turn out when `COc1cc(S(=O)(=O)Nc2ccc(-c3csc(N4C(=O)C(C)SC4c4cccc(Oc5ccccc5)c4)n3)cc2)ccc1Cl` (stereo not drawn) was run?
Answer: > 100 µM

Question: Which TGI does the source give for `O=c1cc(NNc2ccc(F)cc2)[nH]c(=O)[nH]1` here?
Answer: 37.7 µM

Question: How did the TGI turn out when `O=C1CC(Cl)c2c1csc2Br` (stereo not drawn) was run?
Answer: 35.7 µM

Tested on: SF-268 CNS
Assay: DTP human tumour cell line panel, 48 h

Question: Which TGI does the source give for `Cc1ccc(N=Nc2c(O)c(C(=O)O)cc3ccccc23)c(S(=O)(=O)O)c1` here?
Answer: > 100 µM

Question: `COc1cc(S(=O)(=O)Nc2ccc(-c3csc(N4C(=O)C(C)SC4c4cccc(Oc5ccccc5)c4)n3)cc2)ccc1Cl` (stereo not drawn) was tested. Which TGI did it give?
Answer: > 100 µM

Question: With `O=c1cc(NNc2ccc(F)cc2)[nH]c(=O)[nH]1` as the molecule, how does the TGI read?
Answer: 53.8 µM

Question: `CC(CCc1ccccc1)NCC(O)n1c(/N=N/N(C)C)nc2c1c(=O)n(C)c(=O)n2C` (stereo not drawn) was tested. Which TGI did it give?
Answer: > 100 µM

Question: For `O=C1CC(Cl)c2c1csc2Br` (stereo not drawn), which TGI is on record?
Answer: 31.4 µM

Tested on: OVCAR-4 ovarian
Assay: DTP human tumour cell line panel, 48 h

Question: How did the TGI turn out when `Cc1ccc(N=Nc2c(O)c(C(=O)O)cc3ccccc23)c(S(=O)(=O)O)c1` was run?
Answer: > 100 µM

Question: For `O=c1cc(NNc2ccc(F)cc2)[nH]c(=O)[nH]1`, which TGI is on record?
Answer: 21.4 µM

Question: `CC(CCc1ccccc1)NCC(O)n1c(/N=N/N(C)C)nc2c1c(=O)n(C)c(=O)n2C` (stereo not drawn) was tested. Which TGI did it give?
Answer: > 100 µM

Question: With `O=C1CC(Cl)c2c1csc2Br` (stereo not drawn) as the molecule, how does the TGI read?
Answer: 63.6 µM

Tested on: SF-295 CNS
Assay: DTP human tumour cell line panel, 48 h

Question: For `Cc1ccc(N=Nc2c(O)c(C(=O)O)cc3ccccc23)c(S(=O)(=O)O)c1`, which TGI is on record?
Answer: > 100 µM

Question: With `COc1cc(S(=O)(=O)Nc2ccc(-c3csc(N4C(=O)C(C)SC4c4cccc(Oc5ccccc5)c4)n3)cc2)ccc1Cl` (stereo not drawn) as the molecule, how does the TGI read?
Answer: > 100 µM

Question: For `O=c1cc(NNc2ccc(F)cc2)[nH]c(=O)[nH]1`, which TGI is on record?
Answer: > 100 µM

Question: For `CC(CCc1ccccc1)NCC(O)n1c(/N=N/N(C)C)nc2c1c(=O)n(C)c(=O)n2C` (stereo not drawn), which TGI is on record?
Answer: > 100 µM

Question: With `O=C1CC(Cl)c2c1csc2Br` (stereo not drawn) as the molecule, how does the TGI read?
Answer: 50.2 µM

Tested on: BT-549 breast
Assay: DTP human tumour cell line panel, 48 h

Question: How did the TGI turn out when `Cc1ccc(N=Nc2c(O)c(C(=O)O)cc3ccccc23)c(S(=O)(=O)O)c1` was run?
Answer: > 100 µM

Question: With `COc1cc(S(=O)(=O)Nc2ccc(-c3csc(N4C(=O)C(C)SC4c4cccc(Oc5ccccc5)c4)n3)cc2)ccc1Cl` (stereo not drawn) as the molecule, how does the TGI read?
Answer: > 100 µM

Question: Which TGI does the source give for `O=c1cc(NNc2ccc(F)cc2)[nH]c(=O)[nH]1` here?
Answer: 26.7 µM

Question: How did the TGI turn out when `CC(CCc1ccccc1)NCC(O)n1c(/N=N/N(C)C)nc2c1c(=O)n(C)c(=O)n2C` (stereo not drawn) was run?
Answer: > 100 µM

Question: How did the TGI turn out when `O=C1CC(Cl)c2c1csc2Br` (stereo not drawn) was run?
Answer: 34 µM

Tested on: HCC-2998 colon
Assay: DTP human tumour cell line panel, 48 h

Question: With `O=c1cc(NNc2ccc(F)cc2)[nH]c(=O)[nH]1` as the molecule, how does the TGI read?
Answer: 51.3 µM

Question: Which TGI does the source give for `O=C1CC(Cl)c2c1csc2Br` (stereo not drawn) here?
Answer: 31.2 µM

Tested on: OVCAR-8 ovarian
Assay: DTP human tumour cell line panel, 48 h

Question: How did the TGI turn out when `Cc1ccc(N=Nc2c(O)c(C(=O)O)cc3ccccc23)c(S(=O)(=O)O)c1` was run?
Answer: > 100 µM

Question: For `COc1cc(S(=O)(=O)Nc2ccc(-c3csc(N4C(=O)C(C)SC4c4cccc(Oc5ccccc5)c4)n3)cc2)ccc1Cl` (stereo not drawn), which TGI is on record?
Answer: > 100 µM

Question: How did the TGI turn out when `O=c1cc(NNc2ccc(F)cc2)[nH]c(=O)[nH]1` was run?
Answer: 53.3 µM

Question: How did the TGI turn out when `CC(CCc1ccccc1)NCC(O)n1c(/N=N/N(C)C)nc2c1c(=O)n(C)c(=O)n2C` (stereo not drawn) was run?
Answer: > 100 µM

Question: How did the TGI turn out when `O=C1CC(Cl)c2c1csc2Br` (stereo not drawn) was run?
Answer: 29.8 µM

Tested on: RXF 393 renal
Assay: DTP human tumour cell line panel, 48 h

Question: How did the TGI turn out when `Cc1ccc(N=Nc2c(O)c(C(=O)O)cc3ccccc23)c(S(=O)(=O)O)c1` was run?
Answer: > 100 µM

Question: For `COc1cc(S(=O)(=O)Nc2ccc(-c3csc(N4C(=O)C(C)SC4c4cccc(Oc5ccccc5)c4)n3)cc2)ccc1Cl` (stereo not drawn), which TGI is on record?
Answer: 88.2 µM

Question: Which TGI does the source give for `O=c1cc(NNc2ccc(F)cc2)[nH]c(=O)[nH]1` here?
Answer: 34.3 µM

Question: How did the TGI turn out when `CC(CCc1ccccc1)NCC(O)n1c(/N=N/N(C)C)nc2c1c(=O)n(C)c(=O)n2C` (stereo not drawn) was run?
Answer: > 100 µM

Question: Which TGI does the source give for `O=C1CC(Cl)c2c1csc2Br` (stereo not drawn) here?
Answer: 34.7 µM

Tested on: A549 NSCLC
Assay: DTP human tumour cell line panel, 48 h

Question: Which TGI does the source give for `Cc1ccc(N=Nc2c(O)c(C(=O)O)cc3ccccc23)c(S(=O)(=O)O)c1` here?
Answer: > 100 µM

Question: Which TGI does the source give for `COc1cc(S(=O)(=O)Nc2ccc(-c3csc(N4C(=O)C(C)SC4c4cccc(Oc5ccccc5)c4)n3)cc2)ccc1Cl` (stereo not drawn) here?
Answer: > 100 µM

Question: Which TGI does the source give for `O=c1cc(NNc2ccc(F)cc2)[nH]c(=O)[nH]1` here?
Answer: 34.7 µM

Question: For `CC(CCc1ccccc1)NCC(O)n1c(/N=N/N(C)C)nc2c1c(=O)n(C)c(=O)n2C` (stereo not drawn), which TGI is on record?
Answer: > 100 µM

Question: Which TGI does the source give for `O=C1CC(Cl)c2c1csc2Br` (stereo not drawn) here?
Answer: 41.4 µM

Tested on: NCI-H522 lung
Assay: DTP human tumour cell line panel, 48 h

Question: How did the TGI turn out when `Cc1ccc(N=Nc2c(O)c(C(=O)O)cc3ccccc23)c(S(=O)(=O)O)c1` was run?
Answer: > 100 µM

Question: Which TGI does the source give for `COc1cc(S(=O)(=O)Nc2ccc(-c3csc(N4C(=O)C(C)SC4c4cccc(Oc5ccccc5)c4)n3)cc2)ccc1Cl` (stereo not drawn) here?
Answer: > 100 µM

Question: Which TGI does the source give for `CC(CCc1ccccc1)NCC(O)n1c(/N=N/N(C)C)nc2c1c(=O)n(C)c(=O)n2C` (stereo not drawn) here?
Answer: > 100 µM

Question: `O=C1CC(Cl)c2c1csc2Br` (stereo not drawn) was tested. Which TGI did it give?
Answer: 11.3 µM

Tested on: CCRF-CEM leukemia
Assay: DTP human tumour cell line panel, 48 h

Question: `Cc1ccc(N=Nc2c(O)c(C(=O)O)cc3ccccc23)c(S(=O)(=O)O)c1` was tested. Which TGI did it give?
Answer: > 100 µM

Question: For `COc1cc(S(=O)(=O)Nc2ccc(-c3csc(N4C(=O)C(C)SC4c4cccc(Oc5ccccc5)c4)n3)cc2)ccc1Cl` (stereo not drawn), which TGI is on record?
Answer: > 100 µM

Question: `O=c1cc(NNc2ccc(F)cc2)[nH]c(=O)[nH]1` was tested. Which TGI did it give?
Answer: 74.7 µM

Question: Which TGI does the source give for `CC(CCc1ccccc1)NCC(O)n1c(/N=N/N(C)C)nc2c1c(=O)n(C)c(=O)n2C` (stereo not drawn) here?
Answer: > 100 µM

Question: For `O=C1CC(Cl)c2c1csc2Br` (stereo not drawn), which TGI is on record?
Answer: 7.78 µM

Tested on: U251 CNS
Assay: DTP human tumour cell line panel, 48 h

Question: How did the TGI turn out when `Cc1ccc(N=Nc2c(O)c(C(=O)O)cc3ccccc23)c(S(=O)(=O)O)c1` was run?
Answer: > 100 µM

Question: With `O=c1cc(NNc2ccc(F)cc2)[nH]c(=O)[nH]1` as the molecule, how does the TGI read?
Answer: 40.8 µM

Question: Which TGI does the source give for `CC(CCc1ccccc1)NCC(O)n1c(/N=N/N(C)C)nc2c1c(=O)n(C)c(=O)n2C` (stereo not drawn) here?
Answer: > 100 µM

Question: How did the TGI turn out when `O=C1CC(Cl)c2c1csc2Br` (stereo not drawn) was run?
Answer: 30.4 µM

Tested on: RPMI-8226 leukemia
Assay: DTP human tumour cell line panel, 48 h

Question: `Cc1ccc(N=Nc2c(O)c(C(=O)O)cc3ccccc23)c(S(=O)(=O)O)c1` was tested. Which TGI did it give?
Answer: > 100 µM

Question: With `COc1cc(S(=O)(=O)Nc2ccc(-c3csc(N4C(=O)C(C)SC4c4cccc(Oc5ccccc5)c4)n3)cc2)ccc1Cl` (stereo not drawn) as the molecule, how does the TGI read?
Answer: > 100 µM

Question: For `O=c1cc(NNc2ccc(F)cc2)[nH]c(=O)[nH]1`, which TGI is on record?
Answer: > 100 µM

Question: `CC(CCc1ccccc1)NCC(O)n1c(/N=N/N(C)C)nc2c1c(=O)n(C)c(=O)n2C` (stereo not drawn) was tested. Which TGI did it give?
Answer: > 100 µM

Question: For `O=C1CC(Cl)c2c1csc2Br` (stereo not drawn), which TGI is on record?
Answer: 3.25 µM

Tested on: SK-MEL-28 melanoma
Assay: DTP human tumour cell line panel, 48 h

Question: `Cc1ccc(N=Nc2c(O)c(C(=O)O)cc3ccccc23)c(S(=O)(=O)O)c1` was tested. Which TGI did it give?
Answer: > 100 µM

Question: With `COc1cc(S(=O)(=O)Nc2ccc(-c3csc(N4C(=O)C(C)SC4c4cccc(Oc5ccccc5)c4)n3)cc2)ccc1Cl` (stereo not drawn) as the molecule, how does the TGI read?
Answer: > 100 µM

Question: `O=c1cc(NNc2ccc(F)cc2)[nH]c(=O)[nH]1` was tested. Which TGI did it give?
Answer: 33.3 µM

Question: With `CC(CCc1ccccc1)NCC(O)n1c(/N=N/N(C)C)nc2c1c(=O)n(C)c(=O)n2C` (stereo not drawn) as the molecule, how does the TGI read?
Answer: > 100 µM

Question: How did the TGI turn out when `O=C1CC(Cl)c2c1csc2Br` (stereo not drawn) was run?
Answer: 32.1 µM
